From article PMC13308190, “Endothelial progenitor cell susceptibility to DNA damaging and DDR-modulating compounds determines endothelial differentiation accuracy” (Stem Cell Research & Therapy, 2026)

Legend:
Assay type in all cases: cell-based, mouse
[1] = system: EC d4 (endothelial progenitor cells); experiment: AlamarBlue cell viability; details: 48 h treatment
Description: (§1) Drug-induced cytotoxicity was monitored by analyzing cell viability using the AlamarBlue assay, which measures the reduction of the non-fluorescent dye resazurin (Sigma [Steinheim, Germany]) to fluorescent resorufin by living (i.e. metabolically active) cells. Fluorescence was measured in quadruplicates (excitation: 535 nm, emission: 590 nm (Tecan infinite 200, Tecan, Männedorf, Switzerland)). Relative cell viability of the untreated control was set to 100%.

[2] = system: mESC; experiment: AlamarBlue cell viability; details: Mus musculus
Description: as §1

[3] = system: EC d4 (endothelial progenitor cells); experiment: RT-qPCR mRNA expression; details: for Flk1 mRNA / Nanog mRNA / Oct4 mRNA / Pecam1 mRNA / Tie1 mRNA / VE-cad mRNA: analysed day 6, Fig 1C; for Ccl2 mRNA / Icam-1 mRNA / Vcam-1 mRNA / iNos mRNA / eNos mRNA: Fig 8D; for Gpx4 mRNA / Slc7a11 mRNA: Fig 6F
Description: Total RNA was purified using the RNeasy Mini Kit (Qiagen, Hilden, Germany). Reverse transcriptase (RT) reaction was performed with the HighCapacity cDNA Reverse Transcription Kit (Applied Biosystems, Darmstadt, Germany) using 900–2000 ng of RNA. Quantitative RT-qPCR analysis was performed using following conditions: (1) 95 °C–10 min; (2) 45 amplification cycles with 95 °C–15 s, 55 °C–15 s, and 72 °C–17 s; (3) 95 °C–1 min, 55 °C–1 min, 65 °C–5 s. If not stated otherwise, analyses were performed in technical triplicates using pooled samples from two independent experiments (each performed with biological duplicates) by use of a CFX96 cycler (BioRad) and the SensiMix SYBR Kit (Bioline, London, UK). The primers used for mRNA expression analyses are listed in Supplementary Table 1. To ensure the specificity of the amplification product, melting curves were recorded at the end of the run. mRNA expression levels were normalized to β-Actin and Gapdh. Relative mRNA expression in mESC or corresponding untreated controls was set to 1.0. Only changes in gene expression of ≤ 0.5- and ≥ 2-fold were considered as biologically relevant.
To monitor prototypical functions of endothelial cells, the uptake of fluorescent 1,1-dioctadecyl-3,3,3,3-tetra-methylindocarbocyanine-labeled acetylated LDL (Dil-acLDL) was examined. Briefly, cells were incubated with Dil-acLDL (10 µg/ml, 4 h, 37 °C). After fixation (3.7% cold formaldehyde/PBS (15 min, RT) nuclei were counterstained with DAPI. The uptake of DiI-acLDL was analyzed by fluorescence microscopy (Olympus BX43, 20x objective). Additionally, the response of differentiated EC to inflammatory cytokines was measured. After treatment with a pro-inflammatory cytokine mixture (TNFα/IL-1β, 10 ng/mL) for 1 h, mRNA expression of activated EC markers E-selectin, Icam-1, Vcam-1, Ccl2, eNos, iNos was analyzed (RT-qPCR).

[4] = system: EC d4; experiment: EdU incorporation (S-phase activity); details: EC d4 48 h
Description: S-phase activity of cells was monitored by measuring EdU incorporation using the EdU-Click 488 assay according to the manufacturer’s protocol. Briefly, cells were pulse-treated with 5-ethynyl-2′-deoxyuridine (EdU) for 3 h. Alexa Fluor 488-conjugated reaction cocktail was added (30 min, RT) and nuclei were counterstained with DAPI. The percentage of EdU-positive area/DAPI-positive area was calculated by fluorescence microscopy (Olympus BX43, 20x objective).

[5] = system: EC d6; experiment: ZO1 tight junction immunofluorescence; details: analysed 2 days later
[6] = system: EC d4; experiment: Nuclear γH2AX / 53BP1 foci (DSB); details: EC d4 48 h, equitoxic concentrations
Description: (§2) DNA double-strand breaks were monitored by immunocytochemical detection of nuclear γH2AX and 53BP1 foci. Cells were fixed with 3.7% formaldehyde/PBS (15 min, RT) and permeabilized (0.3% TritonX/PBS; 15 min, RT). […] Cell suspension was mixed with 0.5% low melting point agarose and applied onto glass slides coated with 1.5% agarose. After lysis in alkaline buffer (pH 10, 1 h, 4 °C, protected from light) and DNA denaturation in precooled electrophoresis buffer (pH > 13, 25 min, 4 °C, protected from light) electrophoresis was performed (300 mA, 25 V, 4 °C, 25 min).

[7] = system: mESC; experiment: Nuclear γH2AX / 53BP1 foci (DSB); details: mESC 24 h, equitoxic concentrations
Description: as §2

[8] = EC d4 + 0.005 µM 48 h, analysed in EC d6
[9] = EC d4 + 0.005 µM 48 h, then + I/T (IL-1β/TNFα 10 ng/ml, 1 h)
[10] = EC d4 + 0.05 µM 48 h, analysed in EC d6
[11] = EC d4 + 0.05 µM 48 h, then + I/T (IL-1β/TNFα 10 ng/ml, 1 h)

## COc1cccc2c1C(=O)c1c(O)c3c(c(O)c1C2=O)C[C@@](O)(C(=O)CO)C[C@@H]3O[C@H]1C[C@H](N)[C@H](O)[C@H](C)O1 [Dox, doxorubicin]
[1]
  susceptibility (cell viability) of EC d4 as compared to both mESC and EC d6: significant higher
[2]; 24 h treatment
  IC50: 170 nM
[2]; 72 h treatment
  IC50: 9 nM
[3]; EC d4 + 0.005 µM 48 h
  Flk1 mRNA: 18.23 Fold of mESC
  Nanog mRNA: 0.03 Fold of mESC
  Oct4 mRNA: 0.02 Fold of mESC
  Pecam1 mRNA: 0.78 Fold of mESC
  Tie1 mRNA: 90.91 Fold of mESC
  VE-cad mRNA: 653.73 Fold of mESC
  Gpx4 mRNA: 1.07 Fold of untreated control
  Slc7a11 mRNA: 1.71 Fold of untreated control
[3]; [8]
  Ccl2 mRNA: 2.40 Fold of untreated control
  Icam-1 mRNA: 3.06 Fold of untreated control
  Vcam-1 mRNA: 0.44 Fold of untreated control
  iNos mRNA: 4.75 Fold of untreated control
[3]; [9]
  Ccl2 mRNA: 242.22 Fold of untreated control
  Icam-1 mRNA: 14.94 Fold of untreated control
  Vcam-1 mRNA: 1.13 Fold of untreated control
  eNos mRNA: 157.09 Fold of untreated control
  iNos mRNA: 4.95 Fold of untreated control
[3]; EC d4 + 0.005 µM 48 h, Fig 2D
  Atp7a mRNA: 1.11 Fold of control
  Ctr2 mRNA: 1.25 Fold of control
  Mdr1 mRNA: 1.46 Fold of control
  Mrp1 mRNA: 1.32 Fold of control
  Oct2 mRNA: 0.33 Fold of control
[3]; EC d4 + 0.005 µM 48 h, Fig 7B
  Cdkn1a mRNA: 1.42 Fold of untreated control
  Cdkn2a mRNA: 1.12 Fold of untreated control
  Glb1 mRNA: 0.97 Fold of untreated control
  Il6 mRNA: 0.95 Fold of untreated control
  Il8 mRNA: 1.26 Fold of untreated control
  Tp53 mRNA: 0.98 Fold of untreated control
[3]; EC d4 + 0.05 µM 48 h
  Flk1 mRNA: 26.95 Fold of mESC
  Nanog mRNA: 0.02 Fold of mESC
  Oct4 mRNA: 0.02 Fold of mESC
  Pecam1 mRNA: 1.42 Fold of mESC
  Tie1 mRNA: 146.88 Fold of mESC
  VE-cad mRNA: 1297.80 Fold of mESC
  Gpx4 mRNA: 1.35 Fold of untreated control
  Slc7a11 mRNA: 3.43 Fold of untreated control
[3]; [10]
  Ccl2 mRNA: 23.54 Fold of untreated control
  Icam-1 mRNA: 53.37 Fold of untreated control
  Vcam-1 mRNA: 0.085 Fold of untreated control
  eNos mRNA: 239.30 Fold of untreated control
  iNos mRNA: 3.20 Fold of untreated control
[3]; [11]
  Ccl2 mRNA: 2314.32 Fold of untreated control
  Icam-1 mRNA: 154.74 Fold of untreated control
  Vcam-1 mRNA: 0.39 Fold of untreated control
  eNos mRNA: 234.32 Fold of untreated control
  iNos mRNA: 3.41 Fold of untreated control
[3]; EC d4 + 0.05 µM 48 h, Fig 2D
  Atp7a mRNA: 1.81 Fold of control
  Atp7b mRNA: 0.54 Fold of control
  Ctr2 mRNA: 1.38 Fold of control
  Mdr1 mRNA: 105.13 Fold of control
  Mrp1 mRNA: 1.43 Fold of control
  Oct2 mRNA: 0.53 Fold of control
[3]; EC d4 + 0.05 µM 48 h, Fig 5C
  Brca1 mRNA: 0.25 Fold of mESC
  Chk1 mRNA: 0.34 Fold of mESC
  Rad51 mRNA: 0.27 Fold of mESC
[3]; EC d4 + 0.05 µM 48 h, Fig 6D
  Pgc1a mRNA: 24.33 Fold of untreated control
[3]; EC d4 + 0.05 µM 48 h, Fig 7B
  Cdkn1a mRNA: 4.89 Fold of untreated control
  Cdkn2a mRNA: 3.09 Fold of untreated control
  Glb1 mRNA: 1.54 Fold of untreated control
  Il6 mRNA: 1.91 Fold of untreated control
  Il8 mRNA: 25.17 Fold of untreated control
[3]; EC d4 + 0.05 µM 48 h, Fig 8C
  Cldn5 mRNA: 1.35 Fold of EC d4 or d6
  Ocln mRNA: 1.78 Fold of EC d4 or d6
  Tjp1 mRNA: 2.10 Fold of EC d4 or d6
[3]; EC d4 + 0.05 µM 48 h, Fig 8F
  Ldlr mRNA: 0.45 Fold of untreated control
[4]
  S-phase activity (EdU-positive cells): decrease in S-phase activity
[5]
  ZO1 assembly in treated EC d6: clearly visible gaps
[6]
  DSB numbers (γH2AX / 53BP1 foci): clear increase
[7]
  nuclear γH2AX foci: significant increase
